According to patent US12522583B2, “Benzimidazole derivatives and aza-benzimidazole derivatives as Janus kinase 2 inhibitors and uses thereof” (Dana-Farber Cancer Institute, Inc., priority 2018, dated 2026):

Experiments:
Assay in all cases: KINOMEscan
Type in all cases: binding
Settings in all cases: read-out: percent control
[1] = molecular target: FLT3-autoinhibited (Homo sapiens (Human), UniProt P36888)
Source text: (§1) Example 2. In Vitro Kinase Selectivity Profiling of the Compounds of the Present Disclosure

[2] = molecular target: CIT (Homo sapiens (Human), UniProt O14578)
Source text: as §1

[3] = molecular target: YANK1 (Homo sapiens (Human), UniProt Q8WU08)
Source text: as §1

[4] = molecular target: IRAK4 (Homo sapiens (Human), UniProt Q9NWZ3)
Source text: as §1

[5] = molecular target: FAK (Homo sapiens (Human), UniProt Q05397)
Source text: as §1

[6] = molecular target: EPHB1 (Homo sapiens (Human), UniProt P54762)
Source text: as §1

[7] = molecular target: TAOK3 (Homo sapiens (Human), UniProt Q9H2K8)
Source text: as §1

[8] = molecular target: PFPK5(P.falciparum) (Plasmodium falciparum (isolate 3D7), UniProt P61075)
Source text: as §1

[9] = molecular target: ABL1(T315I)-phosphorylated (Homo sapiens (Human), UniProt P00519, T315I)
Source text: as §1

[10] = molecular target: ABL1-nonphosphorylated (Homo sapiens (Human), UniProt P00519)
Source text: as §1

[11] = molecular target: MARK3 (Homo sapiens (Human), UniProt P27448)
Source text: as §1

[12] = molecular target: YSK4 (Homo sapiens (Human), UniProt Q56UN5)
Source text: as §1

[13] = molecular target: MAP3K4 (Homo sapiens (Human), UniProt Q9Y6R4)
Source text: as §1

[14] = molecular target: BMPR1B (Homo sapiens (Human), UniProt O00238)
Source text: as §1

[15] = molecular target: ERK8 (Homo sapiens (Human), UniProt Q8TD08)
Source text: as §1

[16] = molecular target: MAPKAPK2 (Homo sapiens (Human), UniProt P49137)
Source text: as §1

[17] = molecular target: ZAK (Homo sapiens (Human), UniProt Q9NYL2)
Source text: as §1

[18] = molecular target: SLK (Homo sapiens (Human), UniProt Q9H2G2)
Source text: as §1

[19] = molecular target: KIT-autoinhibited (Homo sapiens (Human), UniProt P10721)
Source text: as §1

[20] = molecular target: EGFR(G719S) (Homo sapiens (Human), UniProt P00533, G719S)
Source text: as §1

[21] = molecular target: VRK2 (Homo sapiens (Human), UniProt Q86Y07)
Source text: as §1

[22] = molecular target: PAK3 (Homo sapiens (Human), UniProt O75914)
Source text: as §1

[23] = molecular target: IKK-beta (Homo sapiens (Human), UniProt O14920)
Source text: as §1

[24] = molecular target: LATS1 (Homo sapiens (Human), UniProt O95835)
Source text: as §1

[25] = molecular target: AMPK-alpha2 (Homo sapiens (Human), UniProt P54646)
Source text: as §1

[26] = molecular target: MEK2 (Homo sapiens (Human), UniProt P36507)
Source text: as §1

[27] = molecular target: ULK2 (Homo sapiens (Human), UniProt Q8IYT8)
Source text: as §1

[28] = molecular target: YANK2 (Homo sapiens (Human), UniProt Q9NY57)
Source text: as §1

[29] = molecular target: NEK9 (Homo sapiens (Human), UniProt Q8TD19)
Source text: as §1

[30] = molecular target: MAK (Homo sapiens (Human), UniProt P20794)
Source text: as §1

[31] = molecular target: ARK5 (Homo sapiens (Human), UniProt O60285)
Source text: as §1

[32] = molecular target: ABL1(F317I)-phosphorylated (Homo sapiens (Human), UniProt P00519, F317I)
Source text: as §1

[33] = molecular target: TXK (Homo sapiens (Human), UniProt P42681)
Source text: as §1

[34] = molecular target: SNRK (Homo sapiens (Human), UniProt Q9NRH2)
Source text: as §1

[35] = molecular target: BTK (Homo sapiens (Human), UniProt Q06187)
Source text: as §1

[36] = molecular target: CSNK1D (Homo sapiens (Human), UniProt P48730)
Source text: as §1

[37] = molecular target: RIPK4 (Homo sapiens (Human), UniProt P57078)
Source text: as §1

[38] = molecular target: PAK1 (Homo sapiens (Human), UniProt Q13153)
Source text: as §1

[39] = molecular target: HCK (Homo sapiens (Human), UniProt P08631)
Source text: as §1

[40] = molecular target: PLK2 (Homo sapiens (Human), UniProt Q9NYY3)
Source text: as §1

[41] = molecular target: MUSK (Homo sapiens (Human), UniProt O15146)
Source text: as §1

Sequence of MAP3K4 (Q9Y6R4 whole entry): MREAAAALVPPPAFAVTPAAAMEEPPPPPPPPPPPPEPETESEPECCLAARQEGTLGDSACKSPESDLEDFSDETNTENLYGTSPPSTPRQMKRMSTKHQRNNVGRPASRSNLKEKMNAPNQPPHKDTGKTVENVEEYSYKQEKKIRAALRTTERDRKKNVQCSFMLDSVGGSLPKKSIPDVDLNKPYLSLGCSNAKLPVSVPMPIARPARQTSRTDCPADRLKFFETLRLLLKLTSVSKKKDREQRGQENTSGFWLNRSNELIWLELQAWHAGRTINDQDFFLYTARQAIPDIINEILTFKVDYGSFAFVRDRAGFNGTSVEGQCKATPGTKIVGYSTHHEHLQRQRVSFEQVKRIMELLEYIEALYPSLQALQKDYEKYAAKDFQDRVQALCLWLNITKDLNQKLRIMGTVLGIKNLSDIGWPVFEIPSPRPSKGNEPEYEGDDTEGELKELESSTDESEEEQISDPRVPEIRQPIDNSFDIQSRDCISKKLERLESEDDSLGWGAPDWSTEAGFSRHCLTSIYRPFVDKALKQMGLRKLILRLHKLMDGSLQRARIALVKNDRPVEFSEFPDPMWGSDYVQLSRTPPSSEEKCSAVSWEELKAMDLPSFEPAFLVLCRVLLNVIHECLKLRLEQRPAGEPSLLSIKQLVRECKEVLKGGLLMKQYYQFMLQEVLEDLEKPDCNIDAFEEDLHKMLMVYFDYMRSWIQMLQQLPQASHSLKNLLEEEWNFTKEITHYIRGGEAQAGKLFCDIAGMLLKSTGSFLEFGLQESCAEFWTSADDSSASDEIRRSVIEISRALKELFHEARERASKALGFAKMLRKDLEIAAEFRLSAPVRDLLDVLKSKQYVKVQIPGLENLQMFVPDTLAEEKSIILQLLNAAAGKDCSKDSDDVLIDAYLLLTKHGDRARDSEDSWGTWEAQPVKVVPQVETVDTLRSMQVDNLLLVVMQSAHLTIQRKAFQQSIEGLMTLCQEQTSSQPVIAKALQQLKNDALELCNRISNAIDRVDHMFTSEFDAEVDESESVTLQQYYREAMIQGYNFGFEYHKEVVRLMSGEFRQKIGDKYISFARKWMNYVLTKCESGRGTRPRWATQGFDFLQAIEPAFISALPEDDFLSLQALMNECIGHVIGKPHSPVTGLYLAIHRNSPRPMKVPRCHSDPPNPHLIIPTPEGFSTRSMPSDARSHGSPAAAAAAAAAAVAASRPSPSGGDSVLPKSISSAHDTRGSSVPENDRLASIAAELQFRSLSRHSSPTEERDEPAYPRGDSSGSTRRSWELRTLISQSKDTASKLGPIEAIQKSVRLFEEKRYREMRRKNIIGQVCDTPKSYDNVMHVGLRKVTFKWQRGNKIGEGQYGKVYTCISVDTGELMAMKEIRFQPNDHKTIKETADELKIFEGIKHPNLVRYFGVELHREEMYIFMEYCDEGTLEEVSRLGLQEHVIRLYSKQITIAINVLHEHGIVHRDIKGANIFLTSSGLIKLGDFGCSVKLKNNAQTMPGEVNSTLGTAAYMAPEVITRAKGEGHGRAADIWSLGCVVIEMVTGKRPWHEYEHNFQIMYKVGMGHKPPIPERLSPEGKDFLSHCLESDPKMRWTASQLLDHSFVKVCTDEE
Sequence of SNRK (Q9NRH2 whole entry): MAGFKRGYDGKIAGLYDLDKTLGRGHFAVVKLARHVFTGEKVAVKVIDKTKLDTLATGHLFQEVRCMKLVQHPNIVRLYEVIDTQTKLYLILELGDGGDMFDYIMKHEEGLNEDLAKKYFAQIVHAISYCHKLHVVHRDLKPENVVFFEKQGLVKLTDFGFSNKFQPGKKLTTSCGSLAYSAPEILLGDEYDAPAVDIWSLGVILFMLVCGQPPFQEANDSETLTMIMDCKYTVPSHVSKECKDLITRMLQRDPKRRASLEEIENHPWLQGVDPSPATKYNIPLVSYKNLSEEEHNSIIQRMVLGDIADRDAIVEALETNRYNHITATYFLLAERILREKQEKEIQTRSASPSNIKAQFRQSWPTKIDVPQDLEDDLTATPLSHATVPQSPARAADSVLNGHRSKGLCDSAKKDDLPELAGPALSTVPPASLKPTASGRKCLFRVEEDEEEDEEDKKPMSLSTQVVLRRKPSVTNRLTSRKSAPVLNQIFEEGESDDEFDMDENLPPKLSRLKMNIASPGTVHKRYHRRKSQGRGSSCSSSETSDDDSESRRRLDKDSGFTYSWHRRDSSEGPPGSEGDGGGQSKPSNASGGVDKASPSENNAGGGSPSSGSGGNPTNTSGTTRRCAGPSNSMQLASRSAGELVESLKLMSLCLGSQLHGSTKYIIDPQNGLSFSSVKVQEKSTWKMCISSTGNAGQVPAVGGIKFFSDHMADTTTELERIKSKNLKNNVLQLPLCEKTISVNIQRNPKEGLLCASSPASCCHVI
Sequence of CIT (O14578 whole entry): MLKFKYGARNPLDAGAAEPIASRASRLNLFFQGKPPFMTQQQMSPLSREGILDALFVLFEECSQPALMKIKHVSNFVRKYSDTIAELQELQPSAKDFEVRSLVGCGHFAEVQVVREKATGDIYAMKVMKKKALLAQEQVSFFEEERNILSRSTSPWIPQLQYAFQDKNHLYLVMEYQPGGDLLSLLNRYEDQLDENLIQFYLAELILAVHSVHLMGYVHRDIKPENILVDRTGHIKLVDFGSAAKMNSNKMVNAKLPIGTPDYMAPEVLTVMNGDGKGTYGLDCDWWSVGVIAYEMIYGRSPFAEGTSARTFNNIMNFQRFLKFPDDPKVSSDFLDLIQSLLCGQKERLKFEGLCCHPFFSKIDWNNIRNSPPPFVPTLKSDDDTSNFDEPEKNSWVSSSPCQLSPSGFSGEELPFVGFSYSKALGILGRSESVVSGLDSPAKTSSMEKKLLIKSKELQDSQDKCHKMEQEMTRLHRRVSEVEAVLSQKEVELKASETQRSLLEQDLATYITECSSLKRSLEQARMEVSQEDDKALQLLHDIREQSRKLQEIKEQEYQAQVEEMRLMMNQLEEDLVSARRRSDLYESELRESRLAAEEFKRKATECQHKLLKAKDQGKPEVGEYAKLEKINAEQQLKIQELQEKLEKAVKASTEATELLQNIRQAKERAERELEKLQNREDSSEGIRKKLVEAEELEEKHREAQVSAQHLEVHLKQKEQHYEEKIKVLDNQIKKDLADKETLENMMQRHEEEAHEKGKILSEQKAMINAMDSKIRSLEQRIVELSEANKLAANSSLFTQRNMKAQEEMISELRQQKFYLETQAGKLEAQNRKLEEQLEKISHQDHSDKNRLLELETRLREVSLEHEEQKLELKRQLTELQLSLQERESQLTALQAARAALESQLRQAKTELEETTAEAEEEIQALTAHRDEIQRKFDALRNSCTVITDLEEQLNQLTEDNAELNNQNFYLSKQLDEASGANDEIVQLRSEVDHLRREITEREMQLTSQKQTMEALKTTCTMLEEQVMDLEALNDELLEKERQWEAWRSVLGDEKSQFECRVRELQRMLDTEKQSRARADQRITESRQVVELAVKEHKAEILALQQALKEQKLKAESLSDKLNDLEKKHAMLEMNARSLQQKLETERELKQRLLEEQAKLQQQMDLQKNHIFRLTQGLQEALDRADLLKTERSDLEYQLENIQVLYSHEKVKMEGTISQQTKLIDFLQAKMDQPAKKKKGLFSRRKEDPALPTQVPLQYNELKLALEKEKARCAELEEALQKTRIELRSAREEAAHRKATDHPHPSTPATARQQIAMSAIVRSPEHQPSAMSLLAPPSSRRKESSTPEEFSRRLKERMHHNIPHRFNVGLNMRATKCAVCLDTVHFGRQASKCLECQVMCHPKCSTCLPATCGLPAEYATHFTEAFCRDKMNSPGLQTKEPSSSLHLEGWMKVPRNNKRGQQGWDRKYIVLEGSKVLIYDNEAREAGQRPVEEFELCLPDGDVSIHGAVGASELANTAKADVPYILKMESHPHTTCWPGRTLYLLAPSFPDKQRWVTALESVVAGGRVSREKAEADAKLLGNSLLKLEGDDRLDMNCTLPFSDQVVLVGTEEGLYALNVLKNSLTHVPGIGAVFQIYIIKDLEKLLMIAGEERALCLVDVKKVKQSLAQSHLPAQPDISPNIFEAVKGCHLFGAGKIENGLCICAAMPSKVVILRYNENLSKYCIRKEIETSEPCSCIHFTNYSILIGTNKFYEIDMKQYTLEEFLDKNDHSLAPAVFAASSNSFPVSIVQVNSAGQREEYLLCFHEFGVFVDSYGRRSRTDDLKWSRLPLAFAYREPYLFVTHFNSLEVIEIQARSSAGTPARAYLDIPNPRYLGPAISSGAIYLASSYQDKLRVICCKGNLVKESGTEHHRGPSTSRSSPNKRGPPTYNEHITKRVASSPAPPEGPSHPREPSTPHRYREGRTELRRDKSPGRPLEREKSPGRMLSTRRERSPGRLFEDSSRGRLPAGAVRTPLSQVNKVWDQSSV
Sequence of FLT3-autoinhibited (P36888 564-993 limits assumed): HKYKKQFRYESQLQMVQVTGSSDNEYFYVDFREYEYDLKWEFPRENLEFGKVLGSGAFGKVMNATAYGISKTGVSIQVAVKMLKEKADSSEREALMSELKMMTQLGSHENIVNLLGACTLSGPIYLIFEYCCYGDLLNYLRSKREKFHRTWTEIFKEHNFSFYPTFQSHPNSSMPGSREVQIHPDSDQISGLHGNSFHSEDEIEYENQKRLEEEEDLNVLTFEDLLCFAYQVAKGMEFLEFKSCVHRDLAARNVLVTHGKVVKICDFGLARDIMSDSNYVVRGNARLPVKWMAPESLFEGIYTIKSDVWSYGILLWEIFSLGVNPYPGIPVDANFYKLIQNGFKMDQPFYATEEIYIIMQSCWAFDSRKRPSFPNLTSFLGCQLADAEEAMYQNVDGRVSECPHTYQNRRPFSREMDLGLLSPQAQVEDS

CCN1CCN(Cc2ccc(Nc3nc4ccc(Oc5ccnc(NC(C)=O)c5)c(C)c4n3C)cc2C(F)(F)F)CC1 [Compound I-6, N-(4-(2-(4-((4-ethylpiperazin-1-yl)methyl)-3-(trifluoromethyl)phenylamino)-1,7-dimethyl-1H-benzo[d]imidazol-6-yloxy)pyridin-2-yl)acetamide]
remaining binding at 1 µM [1]: 66%
remaining binding at 1 µM [2]: 79%
remaining binding at 1 µM [3]: 93%
remaining binding at 1 µM [4]: 98%
remaining binding at 1 µM [5]: 94%
remaining binding at 1 µM [6]: 95%
remaining binding at 1 µM [7]: 13%
remaining binding at 1 µM [8]: 91%
remaining binding at 1 µM [9]: 87%
remaining binding at 1 µM [10]: 0.05%
remaining binding at 1 µM [11]: 86%
remaining binding at 1 µM [12]: 67%
remaining binding at 1 µM [13]: 60%
remaining binding at 1 µM [14]: 89%
remaining binding at 1 µM [15]: 75%
remaining binding at 1 µM [16]: 100%
remaining binding at 1 µM [17]: 5.6%
remaining binding at 1 µM [18]: 55%
remaining binding at 1 µM [19]: 82%
remaining binding at 1 µM [20]: 100%
remaining binding at 1 µM [21]: 100%
remaining binding at 1 µM [22]: 77%
remaining binding at 1 µM [23]: 72%
remaining binding at 1 µM [24]: 95%
remaining binding at 1 µM [25]: 92%
remaining binding at 1 µM [26]: 100%
remaining binding at 1 µM [27]: 100%
remaining binding at 1 µM [28]: 91%
remaining binding at 1 µM [29]: 68%
remaining binding at 1 µM [30]: 86%
remaining binding at 1 µM [31]: 100%
remaining binding at 1 µM [32]: 34%
remaining binding at 1 µM [33]: 84%
remaining binding at 1 µM [34]: 81%
remaining binding at 1 µM [35]: 88%
remaining binding at 1 µM [36]: 100%
remaining binding at 1 µM [37]: 97%
remaining binding at 1 µM [38]: 77%
remaining binding at 1 µM [39]: 34%
remaining binding at 1 µM [40]: 71%
remaining binding at 1 µM [41]: 72%

CCN1CCN(Cc2ccc(Nc3nc4ccc(Oc5ccnc(NC(C)=O)c5)cc4n3C)cc2C(F)(F)F)CC1 [Compound I-2]
remaining binding at 1 µM [1]: 100%
remaining binding at 1 µM [2]: 90%
remaining binding at 1 µM [3]: 100%
remaining binding at 1 µM [4]: 81%
remaining binding at 1 µM [5]: 98%
remaining binding at 1 µM [6]: 94%
remaining binding at 1 µM [7]: 41%
remaining binding at 1 µM [8]: 100%
remaining binding at 1 µM [9]: 62%
remaining binding at 1 µM [10]: 0.3%
remaining binding at 1 µM [11]: 87%
remaining binding at 1 µM [12]: 51%
remaining binding at 1 µM [13]: 100%
remaining binding at 1 µM [14]: 84%
remaining binding at 1 µM [15]: 79%
remaining binding at 1 µM [16]: 78%
remaining binding at 1 µM [17]: 25%
remaining binding at 1 µM [18]: 81%
remaining binding at 1 µM [19]: 76%
remaining binding at 1 µM [20]: 96%
remaining binding at 1 µM [21]: 54%
remaining binding at 1 µM [22]: 54%
remaining binding at 1 µM [23]: 98%
remaining binding at 1 µM [24]: 42%
remaining binding at 1 µM [25]: 100%
remaining binding at 1 µM [26]: 77%
remaining binding at 1 µM [27]: 91%
remaining binding at 1 µM [28]: 100%
remaining binding at 1 µM [29]: 87%
remaining binding at 1 µM [30]: 78%
remaining binding at 1 µM [31]: 100%
remaining binding at 1 µM [32]: 82%
remaining binding at 1 µM [33]: 100%
remaining binding at 1 µM [34]: 100%
remaining binding at 1 µM [35]: 78%
remaining binding at 1 µM [36]: 100%
remaining binding at 1 µM [37]: 86%
remaining binding at 1 µM [38]: 88%
remaining binding at 1 µM [39]: 89%
remaining binding at 1 µM [40]: 94%
remaining binding at 1 µM [41]: 100%
